{
  "source": "patent US20240182513A1",
  "about": "“SEPARATION OF METAL IONS FROM A SAMPLE USING GLYCOLIPIDS” (ARIZONA BOARD OF REGENTS ON BEHALF OF THE UNIVERSITY OF …, priority 2021, published 2024)",
  "key": {"[1]": {"test": "Example 2.2 glycolipid facilitated chemical precipitation: lanthanum", "protocol": "(§1) Nine different structural variants were selected to examine the effect of the headgroup and number and length of the hydrophobic tail(s) on glycolipids as a chemical precipitant (Table 6). These solutions were made in advance and stored at 4° C. for up to one month and brought to room temperature (˜25° C.) before each experiment.\n(§2) Each metal (Pb^2+, La^3+, and Mg^2+) was evaluated separately with each of the nine glycolipids. […] The reactions were mixed in the order of nanopure water (≥18 MΩ-cm), glycolipid solution, then metal solution. The metal and glycolipid solutions were continuously stirred as they were aliquoted into the reaction tubes. All experiments were performed in triplicate.\nThe reaction tubes were rotated overnight (16 to 24 h) and then three samples were collected from each tube to measure metal removal from solution: (1) no further treatment; (2) an additional filtration step; and (3) an additional centrifugation step. Briefly, for the glycolipid adsorption treatment samples all tubes were vortexed for approximately 5 sec immediately before sampling to ensure that non-adsorbed glycolipid-metal complexes were mixed into the solution column. After mixing, 0.1 ml of the reaction solution was aliquoted into a dilution tube of 2% trace metal grade nitric acid for analysis. […]\n(§3) Samples for the filtration treatment were vortexed for 5 sec, then a 0.6 ml aliquot was collected with a 1 ml syringe. […] Following collection, the metal content in all samples was analyzed at the Arizona Laboratory for Emerging Contaminants (ALEC) at the University of Arizona using inductively coupled plasma mass spectrometry.\n(§4) R was determined by comparing the solution metal concentration of the treatment sample (Cnt for the glycolipid with no further treatment sample, Cf for the glycolipid and filtration sample, and Cc for the glycolipid and centrifugation sample) to the solution metal concentration of a glycolipid-free control (Ci) that underwent the same handling and processing steps. […]"}, "[2]": {"test": "Example 2.2 glycolipid facilitated chemical precipitation: lead", "details": "for Pb^2+ maximum removal: precipitation without further treatment, maximum over molar ratios", "protocol": "as §1, §2\nThe reaction tubes were rotated overnight (16 to 24 h) and then three samples were collected from each tube to measure metal removal from solution: (1) no further treatment; (2) an additional filtration step; and (3) an additional centrifugation step. Briefly, for the glycolipid adsorption treatment samples all tubes were vortexed for approximately 5 sec immediately before sampling to ensure that non-adsorbed glycolipid-metal complexes were mixed into the solution column. After mixing, 0.1 ml of the reaction solution was aliquoted into a dilution tube of 2% trace metal grade nitric acid for analysis. This sample measures the loss of metal due to the formation of hydrophobic scums or adsorbed complexes not attributable to the subsequent filtration or centrifugation treatments.\nSamples for the filtration treatment were vortexed for 5 sec, then a 0.6 ml aliquot was collected with a 1 ml syringe. A GHP acrodisc disk filter (hydrophilic polypropylene membrane, 0.45 µm pore size, 25 mm disc diameter) from Pall Life Sciences (Port Washington, New York) or PTFE disk filters (hydrophobic polytetrafluoroethylene membrane, 0.45 μm pore size, 25 mm disc diameter) from Fisher Scientific (Waltham, MA) was then placed onto the end of the syringe and approximately 0.1 ml of filtrate was collected into a dilution tube for analysis. The centrifuge sample was collected by centrifuging the remaining reaction solution at 10,000 RCF for 15 min. Approximately 0.1 ml of the supernatant was aliquoted into a dilution tube for analysis. Following collection, the metal content in all samples was analyzed at the Arizona Laboratory for Emerging Contaminants (ALEC) at the University of Arizona using inductively coupled plasma mass spectrometry.\nas §4, with “steps. The equations for these calculations are shown below:” for “steps.”"}, "[3]": {"test": "Example 2.2 glycolipid facilitated chemical precipitation: magnesium", "protocol": "as §1, with “Surfactants: Each of the solutions were made by dissolving a single glycolipid (GlycoSurf Inc., Salt Lake City, >95% purity) in nanopure water (≥18 MΩ-cm) then adjusting the pH to 6.90±0.05 with HNO3 and NaOH. Nine” for “Nine”\nMetals: Three metals were tested for binding with the glycolipids: lead as […] (Fisher Scientific, Waltham, MA, 99% purity), lanthanum as La(NO3)3 6(H2O) (Sigma-Aldrich, St. Louis, MO, 99.99% purity), and magnesium as Mg(NO3)2 6(H2O) (Sigma-Aldrich, St. Louis, MO, 99% purity. Metal solutions (5 mM) were made using nanopure water (≥18 MΩ-cm) and were not pH balanced.\nEach metal (Pb^2+, La^3+, and Mg^2+) was evaluated separately with each of the nine glycolipids. […]\nas §3\nas §4, with “Calculations: The efficiency of metal removal (R) was determined for each of the three treatments: Ra for the active mixing/adsorption treatment, Rf for the glycolipid and filtration treatment, and Rc for the glycolipid and centrifugation treatment. R” for “R”"}, "[4]": {"test": "Ion flotation of uranium from Monument Valley groundwater with rhamnolipid collectors", "details": "pH 6.5", "from_the_text": "Groundwater Collection and Analysis: The Monument Valley site is in Cane Valley, AZ, which is in northeastern Arizona. Groundwater was collected from monitoring well 662, which is down gradient of the source zone within the boundaries of the uranium groundwater plume. Samples were collected using dedicated bladder pumps and a QED Micropurge Controller. Groundwater was collected into a 50 L LDPE carboy (Thermo Scientific Nalgene) after the groundwater's pH and dissolved oxygen levels from the pump stabilized. The solution was stored as received, on the lab bench at ambient temperature until use.\nFor cation and anion analysis, groundwater was filtered ([…]) then diluted with 2% trace metals grade nitric acid (Fisher Scientific, Waltham, MA) in metal-free polypropylene 15 mL centrifuge tubes (VWR, Radnor, PA). Cations were analyzed using an Elan DRC-II inductively coupled plasma mass spectrometer (ICP-MS). Anions (F^−1, Cl^−1, Br^−1, NO2^−1, NO3^−1, […], and SO4^−2) were analyzed by using a Thermo Scientific Dionex ICS-6000 high-performance ion chromatography system. Data generated in this geochemical analysis were used to model uranium speciation using Visual MINTEQ 3.1. Only major solution constituents—those greater than 10 μg L^−1 for metals or 5 μmol L^−1 for anions—were included in the experiment, and carbonates were excluded because they are stripped from solution when nitrogen is sparged in the flotation process.\nChemicals: Both biosynthetic and synthetic monorhamnolipid collectors were tested for flotation efficiency. Biosynthetic monorhamnolipid tail lengths ‘m’ and ‘n’ range from 4 to 12 due to natural congener variation. Synthetic monorhamnolipids (Rha-C10-C10, Rha-C12-C12, or Rha-C14-C14) were synthesized with equal length tails where ‘m’=‘n’=6-14. The production and purification of biosynthetic monorhamnolipids (bio-mRL) from Pseudomonas aeruginosa ATCC 9027 has been previously described by Hogan et al., J. Hazard. Mater. 2017, 340, pp. 171-178. This organism exclusively produces monorhamnolipids—rhamnolipids with a single rhamnose sugar in the hydrophilic moiety of the molecule—as a congener mixture with varying hydrophobic tail lengths, in which the rhamnosyl-β-hydroxydecanoyl-β-hydroxydecanoate (C10-C10) dominates at 75-85 wt %. A molecular weight of 504 g mol^−1 (based on the C10-C10 structure) was used to estimate the bio-mRL concentration. Synthetic monorhamnolipids with decyl (Rha-C10-C10), dodecyl (Rha-C12-C12), and tetradecyl (Rha-C14-C14) hydrophobic moieties were prepared for comparative experiment. The molecular weights of the synthetic monorhamnolipids are 504.7, 560.8, and 616.9, respectively. All solutions were made using nanopure water (≥18 MΩ-cm). pH was adjusted with HNO3 and NaOH. […]"}, "[5]": {"details": "precipitation without further treatment, 5:1 ratio"}, "[6]": {"details": "precipitation without further treatment, molar ratio not stated"}, "[7]": {"details": "precipitation followed by centrifugation, molar ratio not stated / over ratios"}},
  "data": [
    {"smiles": "CCCCCCCCCCCC(CC(=O)O)OC1O[C@H](CO)[C@H](O)[C@H](O)[C@H]1O", "note": "(stereo partly drawn) [Gal-C14]", "values": [
      {"measurement": "La^3+ removal", "setting": "[1]; [5]", "result": 57.9, "unit": "%"},
      {"measurement": "Pb^2+ maximum removal", "setting": "[2]", "result": 1.5, "unit": "%"},
      {"measurement": "Mg^2+ removal", "setting": "[3]; [5]", "result": 11.6, "unit": "%"}
    ]},
    {"smiles": "CCCCCCCC(CC(=O)O)OC(=O)CC(CCCCCCC)O[C@@H]1OC(C)[C@H](O)C(O)C1O[C@@H]1OC(C)[C@H](O)C(O)C1O", "note": "(stereo partly drawn) [dirhamnolipid]", "values": [
      {"measurement": "uranium removal percentage", "setting": "[4]", "result": "about 75%"}
    ]},
    {"smiles": "CCCCCCCCCCCC(CC(=O)O)OC1OC[C@@H](O)[C@H](O)[C@H]1O", "note": "(stereo partly drawn) [Xyl-C14]", "values": [
      {"measurement": "La^3+ removal", "setting": "[1]; [6]", "result": 42.6, "unit": "%"},
      {"measurement": "Pb^2+ maximum removal", "setting": "[2]", "result": "< 7", "unit": "%"}
    ]},
    {"smiles": "CCCCCCCC(CC(=O)O)OC1OC[C@@H](O)[C@H](O)[C@H]1O", "note": "(stereo partly drawn) [Xyl-C10]", "values": [
      {"measurement": "La^3+ removal", "setting": "[1]; [7]", "result": "≤ 30", "unit": "%"},
      {"measurement": "Pb^2+ removal", "setting": "[2]; [7]", "result": "≤ 30", "unit": "%"},
      {"measurement": "Pb^2+ maximum removal", "setting": "[2]", "result": "approximately 30%"},
      {"measurement": "Mg^2+ removal", "setting": "[3]; [7]", "result": "≤ 30", "unit": "%"}
    ]},
    {"smiles": "CCCCCCCCCCCC(CC(=O)O)OC(=O)CC(CCCCCCCCCCC)OC1OC[C@@H](O)[C@H](O)[C@H]1O", "note": "(stereo partly drawn) [Xyl-C14-C14]", "values": [
      {"measurement": "Pb^2+ maximum removal", "setting": "[2]", "result": "approximately 30%"},
      {"measurement": "Mg^2+ removal", "setting": "[3]; [6]", "result": 17.1, "unit": "%"}
    ]}
  ]
}
